Results from patent US20150182472A1, “DENATURED LACTOGLOBULIN AND POLYPHENOL COASSEMBLIES” (TECHNION RESEARCH AND DEVELOPMENT FOUNDTION LTD., priority 2010, published 2015).

What was measured:
[1] = Particle size distribution by dynamic light scattering (DLS); format: physicochemical
Description: Dynamic light scattering was used to evaluate size distribution of the nanocomplexes formed, and that of the pure protein. To produce particles containing the EGCG:β-Lg molar ratios 2:1, 4:1, 6:1, 8:1 and 10:1, two experiments were performed: • (1) β-Lg solution (0.54 mM, in 0.9 ml of 30 mM PBS, pH 7) was heated to 75° C. for 20 minutes, and then EGCG solutions (1.96 mM-10.25 mM, in 0.48 ml of 5 mM PBS, pH 2.5) were added. […] The final EGCG concentrations were 0.87 mM-4.36 mM (0.04%-0.2%), the final β-Lg concentration was 0.43 mM (0.8%) and the pH of the final solution was 6.88.
After polyphenol addition, samples were vortexed for 20 seconds and allowed to cool to room temperature before measurement.
Particle size distribution was studied by a dynamic light scattering (DLS) analyzer (NICOMP™ 380, Particle Sizing Systems Inc., Santa Barbara, Calif., USA) equipped with an Avalanche Photo Diode (APD) detector, used at a fixed angle of 90°. The 90 mW laser wavelength was 658 nm. Mono- bi- or tri-modal distributions were calculated from the scattered light intensity fluctuations, by cumulants Nicomp™ analysis of the auto correlation function (see supplementary information in (Shapira, Assaraf, & Livney, 2009) for a more complete method description). The size range for the Nicomp distribution analysis was set to 1-1,000 nm. Measurements were made in duplicates at 25° C. Table 3 and FIG. 7 show an increase in particle size with increasing EGCG concentration indicating the formation of preheated complexes/nanoparticles (75° C., 20 min before EGCG addition). The molar ratios of β-Lg to EGCG presented in FIG. 7 are: 1:0 (straight line), 1:2 (dotted line), 1:4 (broken line), 1:6 (bold line/dot/line; ? ), 1:8 (fine line/dot/line; ? ) and 1:10 (line/2 dots; ? ).
As detailed above, EGCG-β-Lg nanoparticles at neutral pH are smaller than 50 nm. In order to determine whether the addition of EGCG to the preheated β-Lg causes, in addition to a slight increase in size, a change in colloidal stability, different EGCG concentration solutions were added to the pre-heated β-Lg to create nano-complexes comprised of β-Lg:EGCG at molar ratios in the range of 1:0 to 1:8, while the β-Lg concentration remains constant at a neutral pH (6.8).
The size distribution of the nano-particles solution seemed to consist of two fractions. The first fraction included the small nano-particles in the range of 2-3 nm in diameter and the second fraction included nano-particles of about 15 nm. Since the size of the protein molecule is around 2 nm, it would be reasonable to assume that the smaller-size fraction represents unbound protein molecules or protein molecules with a few bound EGCG molecules, while the larger-size fraction represents complexes comprising several protein molecules, and probably also several EGCG molecules. […] It was important to see whether the increase in the fraction of the larger sized complexes causes a decrease in colloidal stability. Therefore the predicted stability of the same complexes was studied by measuring the electrophoretic mobility (EM) of the nanocomplexes (FIG. 9B). For uniform and moderate electric fields, a linear relationship usually exists between the steady-state electrophoretic mobility and the zeta potential value (Delgado, et al. (2007) Journal of Colloid and Interface Science, Vol. 309, pages 194-224). The zeta potential is calculated according to the measured electrophoretic mobility using several theoretical models available. The choice of a suitable model is carried out according to the ratio of the particle radius (a) and the Debye length (κ−1) (i.e. a/κ−1=κ*a) which characterize the studied composition. […] In the composition of the invention for the smaller particles (of ˜2-3 nm) the κ*a was approximately 1.5. For the larger complexes of about 15 nm, the κ*a value was approximately 7.5. […]

[2] = Protection against EGCG oxidation: absorbance at 425 nm over time; format: physicochemical
Description: Aliquots of 2.5 ml EGCG solution were transferred to 1 cm path length spectrophotometer cuvettes and covered with parafilm to prevent evaporation. […] Solutions of 0.52 mM (0.95%) protein at a 2:1 molar ratio (EGCG:protein) and pH 6.85 were compared to pure EGCG solutions. The protein was preheated at 2 temperatures (75° C. and 85° C.) for 20 minutes or kept at room temperature, to compare the protection provided by the partially denatured protein to that of the native protein. The reason for testing these two temperatures was that according to the literature, at about this pH, between 65-75° C. small proteins oligomers are formed, while between 75-85° C. some aggregation of the oligomers occurs. […] Appropriate controls of β-Lg without EGCG and EGCG without β-Lg at the respective concentrations and pH were performed. After preparation, the samples were placed in 1 cm path length spectrophotometer cuvettes and covered with parafilm. […]

[3] = sodium phosphate buffer (pH 7.4); 3 hr; cited from earlier work
native β-Lg = molecular target: T1, native β-Lg (Bos taurus, UniProt P02754); test: Intrinsic protein fluorescence quenching: binding of EGCG to native β-Lg (Langmuir-based model and modified Stern-Volmer); parameters: species or system bovine; settings: without preheating (RT)
T1 construct: Beta-lactoglobulin (β-Lg, 18.4 kDa, 162 amino acids) is the major whey protein in cow milk; purchased
T1 sequence (P02754 17-178): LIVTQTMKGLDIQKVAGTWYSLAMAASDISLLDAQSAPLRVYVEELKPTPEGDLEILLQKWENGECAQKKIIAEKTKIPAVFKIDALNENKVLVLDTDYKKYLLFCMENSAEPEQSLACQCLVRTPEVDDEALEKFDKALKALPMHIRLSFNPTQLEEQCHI
Description: (§1) It is based on exciting at 280 nm the Trp and Tyr residues of bovine β-Lg (bovine β-Lg contains two Trp residues and four Tyr residues) and at 295 nm where only Trp residues are excited though the quantum yield of the Trp itself is smaller than that at 280 nm.
(§2) All fluorescence measurements were performed at room temperature. β-Lg solution (2.09 μM in 1.9 ml of 30 mM PBS, pH 6.86) was heated at 75° C. for 20 minutes, or kept at room temperature. The co-assembly preparation process was done as described above. All measurements were performed after equilibrating the solutions at room temperature for 3 hours. EGCG solutions were 0-400 μM in 0.1 ml of 30 mM PBS, pH 2.44. All samples were prepared in triplicates. The pH of the final solutions was 6.86. β-Lg fluorescence was measured at constant protein concentration of 2 μM and EGCG concentrations of 0-20 μM using a Fluorolog 3-22 spectrofluorometer (Horiba, Jobin Yvon, Longjumeau, France) at a Right-Angle mode. Emission spectra were recorded from 290 to 510 nm with an excitation wavelength of 280 nm, and from 305 to 520 nm with an excitation wavelength of 295 nm, employing 5 nm slit widths. The statistical analysis and non-linear curve fitting were performed using Origin 8 (OriginLab, Northampton, USA).
(§3) Trp61 is reportedly quenched in the native state due to proximity to the Cys66-Cys160 disulfide bond, while Trp 19 is located in a non-polar environment within the cavity of the β-barrel structure, and is responsible for most of the Trp (and the protein) fluorescence. A small shift in the maximal emission wavelength of the protein occurred upon heating and was more clearly observed at the excitation wavelength attributed to Trp alone (295 nm). As only small shifts in the maximal wavelength occurred, all analyses were performed at emission of 343 nm for both excitation wavelengths. When studying the binding of EGCG to β-LG by fluorescence, it is important to keep in mind that EGCG, and not only β-LG, absorbs energy, both at the protein's excitation and, to a lower extent, at the emission wavelengths. Consequently, an inner filtering effect occurs, which intensifies with increasing EGCG concentration, reducing the amount of available energy to excite the protein' s fluorescent groups and absorbing some of the emitted energy too. To overcome this effect, the emission at 343 nm was corrected according to Beer-Lambert's law, using equation 1:
(§4) F=Fu·10^QL(ε^λex^+ε^λem^) (Equation 1)
(§5) where Fu is the measured, uncorrected emission intensity, ελex and ελem—the molar extinction coefficients of EGCG at the excitation and emission wavelengths respectively (measured spectrophotometrically, in the same buffer), Q is the quencher (EGCG) concentration in the cell and L is the path length assumed to be 0.5 cm each for the excitation and emission.
(§6) The analysis for determination of the binding constants was performed using a Langmuir-based model, assuming one affinity-class of binding sites, as described by equation (2): […]
(§7) where F and F0 are the fluorescence intensities of the protein solution in the presence and in the absence of the ligand, respectively; F∞ is the fluorescence when the protein is saturated with the ligand and L0 is the total ligand concentration. The decrease in the fluorescence in the presence of different EGCG concentrations was recorded, and the association constant (Ka) as well as the value for maximum fluorescence difference (ΔFmax=F0−F∞) were calculated by non-linear curve fitting to equation 2 (FIG. 5). The parameters for the fitting were based on the quenching of Tyr and Trp fluorescence at pH 6.87, for β-Lg concentration of 2 μM.
(§8) Fluorescence quenching is often described by the Stern-Volmer equation (3): […]
(§9) where F0 and F are the fluorescence intensities before and after the addition of the quencher, respectively, KSV is the Stern-Volmer quenching constant and [Q] is the concentration of the quencher. […]

[4] = molecular target: T2, preheated β-Lg (75° C., 20 min) (Bos taurus, UniProt P02754); test: Intrinsic protein fluorescence quenching: binding of EGCG to preheated β-Lg (Langmuir-based model and modified Stern-Volmer); parameters: species or system bovine; settings: for KSVa ± S.E. (Stern-Volmer quenching constant) / fa ± S.E. (fraction of fluorophore-sites accessible): preheated 20 min 75° C.; for Ka ± S.E.: protein preheated 20 min 75° C. before adding EGCG
T2 construct: Beta-lactoglobulin (β-Lg, 18.4 kDa, 162 amino acids) is the major whey protein in cow milk; purchased
T2 sequence (P02754 17-178): T1 sequence (P02754 17-178)
Description: as §1, §2, §3, §4, §5, §6, §7, §8, §9

[5] = Loading efficiency and loading ratio of EGCG by centrifugal ultrafiltration; format: physicochemical; settings: both β-Lg concentrations (0.5% and 1% w/w)
Description: The loading efficiency (the percentage of encapsulated substance out of total material added to the composition) and loading ratio (the ratio between the encapsulated substance and the encapsulation matrix) of EGCG was determined. β-Lg-EGCG nanoparticles solutions, of 2:1 and 8:1 EGCG: β-Lg molar ratios, were prepared at 1% w/w and 0.5% w/w protein solution. The entrapped EGCG in β-Lg nanoparticles was separated from the free EGCG by centrifugal ultrafiltration as described above. The molar loading ratio and the loading efficiency are presented on Table 4.

[6] = β-Lg 0.35 mM (0.65% (w/w) pH 6.56)
[7] = β-Lg 0.43 mM (0.8% (w/w) pH 6.56)

1:0: preheated β-lactoglobulin without EGCG (major whey protein in cow milk, 18.4 kDa)
size ([1]; rough summary of Table 3): around 2 nm
d, Peak I (β-Lg) [1, 6]: 4.8 nm
fvw, Peak I (β-Lg) [1, 6]: 99.6%
d, Peak I (β-Lg) [1, 7]: 1.4 nm
d, Peak II (β-Lg-EGCG) [1, 7]: 20.2 nm
fvw, Peak I (β-Lg) [1, 7]: 99.8%
fvw, Peak II (β-Lg-EGCG) [1, 7]: 0.2%

O=C(O[C@@H]1Cc2c(O)cc(O)cc2O[C@@H]1c1cc(O)c(O)c(O)c1)c1cc(O)c(O)c(O)c1 [EGCG, (−)-Epigallocatechin-3-gallate]
increase in the 425 nm absorbance with time ([2]; EGCG solution (0.05%) in pH 2.5 PBS): no increase
degradation rate (absorbance at 425 nm) ([2]; PBS pH 6.8, EGCG 0.05%-0.5%): degradation rate increased with rising EGCG concentration
EGCG degradation rate (increase in absorbance at 425 nm) ([2]; eight days at room temperature, EGCG 1.09 mM (0.05%), β-Lg 0.52 mM, pH 6.85): fastest increase in the absorbance
EGCG lost [3]: 80%
KSVa ± S.E. (Stern-Volmer quenching constant) (native β-Lg; excitation 280 nm): 1.4 ± 0.7 10^5 M^−1
Ka ± S.E. (native β-Lg; excitation 280 nm): 1.05 ± 0.34 10^5 M^−1
fa ± S.E. (fraction of fluorophore-sites accessible) (native β-Lg; excitation 280 nm): 0.16 ± 0.07
KSVa ± S.E. (Stern-Volmer quenching constant) (native β-Lg; excitation 295 nm): 1.4 ± 0.7 10^5 M^−1
Ka ± S.E. (native β-Lg; excitation 295 nm): 1.9 ± 0.6 10^5 M^−1
fa ± S.E. (fraction of fluorophore-sites accessible) (native β-Lg; excitation 295 nm): 0.15 ± 0.06
KSVa ± S.E. (Stern-Volmer quenching constant) ([4]; excitation 280 nm): 3.31 ± 0.7 10^5 M^−1
fa ± S.E. (fraction of fluorophore-sites accessible) ([4]; excitation 280 nm): 0.32 ± 0.05
Ka ± S.E. ([4]; excitation 280 nm): 3.7 ± 0.67 10^5 M^−1
KSVa ± S.E. (Stern-Volmer quenching constant) ([4]; excitation 295 nm): 3.07 ± 1.05 10^5 M^−1
fa ± S.E. (fraction of fluorophore-sites accessible) ([4]; excitation 295 nm): 0.25 ± 0.07
Ka ± S.E. ([4]; excitation 295 nm): 3.3 ± 1.07 10^5 M^−1
Ka (association constant, Langmuir-based model fit) ([4]; pH 6.87, β-Lg 2 μM, FIG. 5 fit): 370000 ± 67000 M⁻¹
ΔFmax*10^6 (maximum fluorescence difference) ([4]; pH 6.87, β-Lg 2 μM, FIG. 5 fit): 3.31±0.17

Cn1c(=O)c2c(ncn2C)n(C)c1=O [caffeine]
binding or entrapment in β-Lg [5]: did not show any binding or entrapment
